Measurements taken from US20200282003A1, “MITOCHONDRIAL-TARGETED AN[…] AGAINST MECHANICAL VENTILATION-INDUCED DIAPHRAGM DYSFUNCTION AND SKELETAL MUSCLE ATROPHY” (Cornell University, priority 2010, published 2020).
Square brackets hold non-standard residues; d marks the D form. Peptide text beside a SMILES is read from it. Dmt = Cc1cc(O)cc(C)c1C[C@H](N)C(=O)O

Columns and labels:
[1] = system: several mammalian cell types; conditions: energy-independent manner; cited from earlier work
[2] = mean ± SEM
Source text: To analyze mitochondrial ROS emissions following MV-induced diaphragmatic oxidative stress and weakness, rats were randomly assigned to one of three experimental groups (n=12/group): (1) an acutely anesthetized control group; (2) a 12-hour MV group (MV); and 3) a 12-hour MV group treated with the mitochondrial-targeted antioxidant SS-31 (MVSS). Because of the large tissue requirement for our numerous dependent measures, six animals from each experimental group were used for the mitochondrial measures and the remaining six animals in each group were employed in all other biochemical assays.
Animals in the control group were acutely anesthetized with an intraperitoneal (IP) injection of sodium pentobarbital (60 mg/kg body weight). […] The mitochondrial-targeted antioxidant SS-31 was dissolved in saline and delivered in a bolus (loading) dose (3 mg/kg; subcutaneous injection) 15 min prior to initiation of MV. A constant intravenous infusion (0.05 mg/kg/hr) of SS-31 was maintained throughout MV.
All surgical procedures were performed using aseptic techniques. Animals in the MV groups were anesthetized with an IP injection of sodium pentobarbital (60 mg/kg body weight), tracheostomized, and mechanically ventilated with a pressure-controlled ventilator (Servo Ventilator 300, Siemens) for 12 hours with the following settings: upper airway pressure limit: 20 cm H2O, typical pressure generation above PEEP was 6-9 cm H2O, respiratory rate: 80 bpm; and PEEP: 1 cm H2O.
The carotid artery was cannulated to permit the continuous measurement of blood pressure and the collection of blood during the protocol. Arterial blood samples (100 μl per sample) were removed periodically and analyzed for arterial pO2, pCO2 and pH using an electronic blood-gas analyzer (GEM Premier 3000; Instrumentation Laboratory, Lexington, Mass.). Ventilator adjustments were made if arterial PCO2 exceeded 40 mm Hg. Arterial PO2 was maintained >60 mmHg throughout the experiment by increasing the FIO2 (22-26% oxygen).
A venous catheter was inserted into the jugular vein for continuous infusion of sodium pentobarbital (˜10 mg/kg/hr) and fluid replacement. Body temperature was maintained at 37° C. by use of a recirculating heating blanket and heart rate was monitored via a lead II electrocardiograph. Continuous care during the MV protocol included lubricating the eyes, expressing the bladder, removing airway mucus, rotating the animal, and passively moving the limbs. Animals also received an intramuscular injection of glycopyrrolate (0.18 mg/kg) every two hours during MV to reduce airway secretions.

[3] = rats at completion of 12 h MV with SS-31

| Compound | Penetration of the plasma membrane [1] | Arterial PCO2 [2, 3] | Arterial PO2 [2, 3] | Arterial pH [2, 3] | Systolic blood pressure [2, 3] | Heart rate ([2]; rats at completion of 12 h MV, SS-31 3 mg/kg s.c. bolus + 0.05 mg/kg/hr i.v.) |
| --- | --- | --- | --- | --- | --- | --- |
| 2′,6′-Dmt-D-Arg-Phe-Lys-NH2 [SS-02] | readily penetrates |  |  |  |  |  |
| Cc1cc(O)cc(C)c1C[C@H](NC(=O)[C@H](N)CCCNC(=N)N)C(=O)N[C@@H](CCCCN)C(=O)N[C@@H](Cc1ccccc1)C(N)=O [SS-31, D-Arg-2′,6′-Dmt-Lys-Phe-NH2] (H-[dR][Dmt]KF-NH2) |  | 46 ± 1 | 75 ± 5 mm/Hg | 7.41 ± 0.01 | 108 ± 5 mm/Hg | 347 ± 7 beats/min |
